Measurements: patent publication US20080027082A1, “USE OF ADENOSINE A1 ANTAGONISTS IN RADIOCONTRAST MEDIA INDUCED NEPHROPATHY” (priority 2006, published 2008)

Tests used:
[1] = test system: radiocontrast media induced nephropathy; conditions: Shammas, 2001, Welch, 2002, Huber; cited from earlier work
[2] = target: PGP (Homo sapiens, UniProt P08183); assay: PGP-factor (Table 1); format: in vitro ADME
[3] = Permeability (Table 1); format: in vitro ADME
[4] = target: phosphodiesterase PDE4; assay: phosphodiesterase PDE4 inhibition (enzyme profiling); format: biochemical; conditions: read-out: calculated pKi of the PDE4 inhibition (converted)
From the text: (§1) The phosphodiesterase PDE4 inhibiting activity may be used for titration purposes of patients. The phosphodiesterase PDE4 inhibiting activity of the compounds described herein prevents overdosage of the selective A1 antagonist by alarming the patients with self-evident, non-serious signals like e.g. headache before serious events like e.g. CNS convulsion can occur.

[5] = test system: phosphodiesterases (PDE 1, 2, 3, 5 and 6); assay: inhibition of other phosphodiesterases (enzyme profiling); format: biochemical; conditions: relative to PDE4 inhibition
From the text: as §1

[6] = target: T1, adenosine A1 receptor (Homo sapiens, UniProt P30542); assay: receptor binding and enzyme profiling in a wide range of assays
T1 sequence (P30542 1-326): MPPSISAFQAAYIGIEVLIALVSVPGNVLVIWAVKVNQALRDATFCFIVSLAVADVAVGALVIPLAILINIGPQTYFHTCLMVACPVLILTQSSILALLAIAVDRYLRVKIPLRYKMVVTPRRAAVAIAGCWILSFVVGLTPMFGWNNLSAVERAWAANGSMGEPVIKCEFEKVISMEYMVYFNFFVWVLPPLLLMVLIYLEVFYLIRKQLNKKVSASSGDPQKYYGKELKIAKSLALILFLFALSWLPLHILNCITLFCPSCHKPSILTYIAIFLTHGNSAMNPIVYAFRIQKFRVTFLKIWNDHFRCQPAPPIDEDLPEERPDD
From the text: as §1

[7] = steady-state plasma levels in anesthetized L-NAME pretreated rats; format: in vivo, Sprague-Dawley rats; conditions: rat
Method: The radiocontrast media-dependent acute kidney failure was induced using an experimental protocol based on that published by the group of Osswald,^22 Male Sprague-Dawley rats of approximately 300 g body weight were acclimatized for at least 1 week before the start of the chronic pretreatment with the nitric oxide synthase inhibitor N-nitro-L-arginine methyl ester (L-NAME for 7-9 weeks at a daily dose of 5 mg/kg). For the experiments, the overnight fasted rats (which had continued free access to drinking water) were anesthetized with Inactin (80 mg/kg, given i.p. as a bolus). Catheters were placed (i) in the trachea, (ii) in one jugular vein (for radiocontrast medium administration, and background saline infusion; see below), (iii) in the other jugular vein for vehicle or sunstance 1 administration, (iv) in the carotid artery for blood sampling, and part of the background saline infusion; see below), and (v) in the bladder for urine collection. The rats were kept on a heated table to maintain their body temperature at 37° C. […] The measured values of urine volume, and urine levels of Na^+ were used to calculate the rates of diuresis and natriuresis over the time intervals mentioned above.

[8] = test system: radiocontrast media-dependent acute kidney failure; assay: diuresis and natriuresis following radiocontrast media (diatrizoate) in anesthetized rats; format: in vivo, Sprague-Dawley rats; conditions: for diuresis / sodium excretion: mean ± SEM
Method: The radiocontrast media-dependent acute kidney failure was induced using an experimental protocol based on that published by the group of Osswald,^22 Male Sprague-Dawley rats of approximately 300 g body weight were acclimatized for at least 1 week before the start of the chronic pretreatment with the nitric oxide synthase inhibitor N-nitro-L-arginine methyl ester (L-NAME for 7-9 weeks at a daily dose of 5 mg/kg). For the experiments, the overnight fasted rats (which had continued free access to drinking water) were anesthetized with Inactin (80 mg/kg, given i.p. as a bolus). Catheters were placed (i) in the trachea, (ii) in one jugular vein (for radiocontrast medium administration, and background saline infusion; see below), (iii) in the other jugular vein for vehicle or sunstance 1 administration, (iv) in the carotid artery for blood sampling, and part of the background saline infusion; see below), and (v) in the bladder for urine collection. The rats were kept on a heated table to maintain their body temperature at 37° C. After collecting urine samples for 60-90 min for baseline measurements, the animals received vehicle or substance 1 as follows: a loading bolus of 0.15, or 1.5 mg substance 1 per kg, or vehicle, in a volume of 1 mukg, was applied intravenously, followed by a continuous intravenous infusion at a rate of […] substance 1 per kg per min, or vehicle, in a volume of 11 μL/kg·min until the end of the experiment. With these dose regimens steady-state plasma levels of substance 1 were 59±23, and 314±36 ng/mL, respectively. Ten minutes after the start of the substance 1 (or vehicle) treatment, diatrizoate (meglumine salt, Urolux, 0.61 g diatrizoate/mL, corresponding to a total iodine content of 290 mg/mL, Sanochemia Diagnostics, Neuss, Germany), prewarmed at body temperature, was infused iv over 3 min at a dose of 2.55 mL/kg, corresponding to 740 mg iodine/kg (the timepoint of contrast medium administration was defined as t0). A background saline solution was infused from the beginning and maintained at a rate of ˜1.2 mL/h per 100 g until the end of the experiments (0.24 mL/h via the arterial catheter, and 0.96 mL/h via the venous line). This infusion was required to compensate for the volume loss due to the operation, and the subsequent blood sampling, but also to insure the patency of the arterial catheter between the blood sampling timepoints. Urine samples were collected according to the following schedule: baseline (60-90 min preceding the start of substance 1, or vehicle, administration), t0-30 min (0.5 h timepoint), 30-60 min (1 h timepoint), 60-120 min (2 h timepoint), and 120-180 min (3 h timepoint). Plasma samples were taken at the end of each of the above periods. The measured values of urine volume, and urine levels of Na^+ were used to calculate the rates of diuresis and natriuresis over the time intervals mentioned above.

[9] = test system: renal hemodynamics and oxygenation; assay: renal blood flow and oxygenation following radiocontrast media (iodixanol) in anesthetized rats; format: in vivo, Wistar rats
Method: The experimental protocol was based on a previously published methodology. The experiments were performed using adult male 3-4 months old Wistar rats. Body weight ranged from 250 to 400 g. The rats received a standard chow diet. Feeding and drinking was discontinued approx. 12 hours before the surgery. The animals were anesthetized by intraperitoneal injection of urethane solution ([…]; 6 ml per kg), and placed on a heated table to maintain body temperature at 37° C. throughout surgery and subsequent experiments. After an incision in the left groin the femoral artery was carefully prepared and cannulated to measure the mean arterial blood pressure. Another catheter was placed into the carotid artery for administration of contrast medium. Finally, an inflatable cuff was placed around the abdominal aorta above the origin of the renal arteries. A servo controlled inflation of the cuff allowed for the reduction and maintenance of the renal perfusion pressure at a preset levels. Two 500 μm diameter optical fibers were implanted into the cortex and the outer medulla of left kidney to determine local laser-Doppler fluxes and an ultrasound transit time flowprobe was placed around the renal artery of the same kidney to determine total kidney blood flow (RBF). Renal oxygen levels (oxygen partial pressure=pO2) was likewise determined locally (cortical and medullary pO2, respectively; OxyLite, Oxford Optronics). After implantation and stabilization, the experiment was started by measuring hemodynamic and oxygenation parameters under baseline conditions. Vehicle or substance 1 (5 mg/kg as an intravenous bolus) were then administered. New measurements were performed, and 30 min after vehicle or substance 1 administration, lodixanol (Visipaque 320; 1.5 mL i.a.; Amersham Buchier, Braunschweig, Germany), or vehicle was applied. The experimental groups were thus: 1. Vehicle+Vehicle (‘control’), Vehicle+Visipaque, and sunstance 1+Visipaque.

[10] = Low dose, 0.5 h after CM (diatrizoate)
[11] = Low dose, 1 h after CM (diatrizoate)
[12] = Low dose, 2 h after CM (diatrizoate)
[13] = Low dose, 3 h after CM (diatrizoate)
[14] = high dose, 0.5 h after CM (diatrizoate)
[15] = high dose, 1 h after CM (diatrizoate)
[16] = high dose, 2 h after CM (diatrizoate)
[17] = high dose, 3 h after CM (diatrizoate)

Sequence of PGP (P08183 whole entry): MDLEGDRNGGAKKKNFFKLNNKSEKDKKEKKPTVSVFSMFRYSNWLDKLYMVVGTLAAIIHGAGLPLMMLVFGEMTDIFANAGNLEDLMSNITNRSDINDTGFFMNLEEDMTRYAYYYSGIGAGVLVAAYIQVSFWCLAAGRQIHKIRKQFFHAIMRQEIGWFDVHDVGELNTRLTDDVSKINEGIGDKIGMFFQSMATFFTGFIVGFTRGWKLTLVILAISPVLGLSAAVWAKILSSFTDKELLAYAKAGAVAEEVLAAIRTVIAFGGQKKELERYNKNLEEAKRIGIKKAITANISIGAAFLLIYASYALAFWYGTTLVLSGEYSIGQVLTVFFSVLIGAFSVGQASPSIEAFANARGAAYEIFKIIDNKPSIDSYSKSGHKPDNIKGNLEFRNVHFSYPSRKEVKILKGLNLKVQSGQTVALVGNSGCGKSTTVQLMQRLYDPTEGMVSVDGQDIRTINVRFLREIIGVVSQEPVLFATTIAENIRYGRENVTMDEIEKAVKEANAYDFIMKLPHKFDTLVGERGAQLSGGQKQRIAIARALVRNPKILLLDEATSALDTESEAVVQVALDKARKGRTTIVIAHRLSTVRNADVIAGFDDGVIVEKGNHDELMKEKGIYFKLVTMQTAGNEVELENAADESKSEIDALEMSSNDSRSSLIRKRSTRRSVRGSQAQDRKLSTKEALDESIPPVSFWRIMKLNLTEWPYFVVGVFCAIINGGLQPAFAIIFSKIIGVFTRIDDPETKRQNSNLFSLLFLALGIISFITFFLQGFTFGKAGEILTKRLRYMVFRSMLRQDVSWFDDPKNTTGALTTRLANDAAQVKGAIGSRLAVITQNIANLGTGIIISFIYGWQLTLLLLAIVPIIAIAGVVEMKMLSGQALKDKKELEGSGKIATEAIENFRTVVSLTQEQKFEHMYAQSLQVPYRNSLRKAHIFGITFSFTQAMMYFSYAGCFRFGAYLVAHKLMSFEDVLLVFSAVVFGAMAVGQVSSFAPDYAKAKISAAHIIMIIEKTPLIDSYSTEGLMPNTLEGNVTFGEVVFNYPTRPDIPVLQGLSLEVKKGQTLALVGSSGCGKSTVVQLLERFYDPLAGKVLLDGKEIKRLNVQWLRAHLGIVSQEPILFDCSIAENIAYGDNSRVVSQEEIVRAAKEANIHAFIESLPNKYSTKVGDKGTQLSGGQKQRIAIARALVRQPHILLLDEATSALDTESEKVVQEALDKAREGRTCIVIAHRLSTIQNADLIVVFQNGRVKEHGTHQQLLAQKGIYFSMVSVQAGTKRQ

In the case of Cn1c(=O)c2[nH]cnc2n(C)c1=O [Aminophylline], the “protection against radiocontrast media induced nephropathy” value [1] is listed as “does not appear to add a protective role”.

For CS(=O)(=O)O.NC(=O)[C@@H]1C[C@H](O)CN1c1nc(-c2ccccc2)nc2[nH]ccc12 [substance 2, (4S)-4-hydroxy-1-(2-phenyl-7H-pyrrolo[2,3-a]pyrimidin-4-yl)-L-prolinamide methanesulfonate], the PGP-factor [2] was 10.1 and the “Permeability (%)” value [3] was 27.0%.

For Cn1c(=O)c2[nH]cnc2n(C)c1=O [theophylline], the “protection against radiocontrast media induced nephropathy” value [1] is listed as “effective”.

In the case of CS(=O)(=O)O.OC1CCC(Nc2nc(-c3ccccc3)nc3[nH]ccc23)CC1 (stereo not drawn) [substance 1, 4-[(2-phenyl-7H-pyrrolo[2,3-o]pyrimidin-4-yl)amino]-trans-cyclohexanol methanesulfonate], the PGP-factor [2] is reported as 1.5, the “Permeability (%)” value [3] is reported as 37.4% and the Ki [4] is reported as 0.75 µM. For the same molecule, the “activities on other phosphodiesterases (PDE 1, 2, 3, 5 and 6), fold lower than on PDE4” value [5] was “at least 25 fold”, the “conclusion from receptor binding and enzyme profiling” value [6] was “selective adenosine A1 receptor ligand with some phosphodiesterase PDE4 inhibiting activity” and the steady-state plasma level ([7]; iv loading bolus 0.15 mg/kg, then infusion 1.5 pg per kg per min (so in the source)) was 59 ± 23 ng/mL. The steady-state plasma level ([7]; iv loading bolus 1.5 mg/kg, then infusion 15 pg per kg per min (so in the source)) was 314 ± 36 ng/mL, the diuresis [8, 10] was 27.31 ± 2.36 mL per kg body weight per h and the sodium excretion [8, 10] was 3039 ± 354 μmol per kg body weight per h. For the same molecule, the diuresis [8, 11] was 3.87 ± 0.40 mL per kg body weight per h, the sodium excretion [8, 11] was 338 ± 81 μmol per kg body weight per h and the diuresis [8, 12] was 3.34 ± 0.42 mL per kg body weight per h. For the same molecule, the sodium excretion [8, 12] was 613 ± 121 μmol per kg body weight per h, the diuresis [8, 13] was 3.54 ± 0.50 mL per kg body weight per h and the sodium excretion [8, 13] was 842 ± 121 μmol per kg body weight per h. The “persistence of the stimulating effect on diuresis” value ([8]; after contrast medium (diatrizoate) administration) was “at least 3 h”, the potassium excretion ([8]; after diatrizoate, throughout the experiment, not shown) was “not relevantly affected” and the chloride excretion ([8]; after diatrizoate, not shown) was “stimulated”. The diuresis [8, 14] was 28.01 ± 2.02 mL per kg body weight per h, the sodium excretion [8, 14] was 3301 ± 306 μmol per kg body weight per h and the diuresis [8, 15] was 4.97 ± 0.30 mL per kg body weight per h. For the same molecule, the sodium excretion [8, 15] was 520 ± 77 μmol per kg body weight per h, the diuresis [8, 16] was 3.13 ± 0.27 mL per kg body weight per h and the sodium excretion [8, 16] was 591 ± 88 μmol per kg body weight per h. The diuresis [8, 17] was 3.11 ± 0.36 mL per kg body weight per h, the sodium excretion [8, 17] was 830 ± 91 μmol per kg body weight per h and the “renal cortical vascular conductance” value ([9]; substance 1 5 mg/kg iv + Visipaque (FIG. 4)) was “maintained this parameter at levels seen in the vehicle control group”. For the same molecule, the “cortical pO2” value ([9]; substance 1 5 mg/kg iv + Visipaque, until the end of the experiment (FIG. 5)) was “significant increase”, the “renal cortical blood flow” value ([9]; substance 1 5 mg/kg iv + Visipaque, vs. Vehicle+Visipaque, 20 min measurement (FIG. 3)) was “sustained and significant increase” and the “effect on Visipaque-induced changes of medullary blood flow and medullary vascular conductance” value ([9]; substance 1 5 mg/kg iv + Visipaque, not shown) was “only partially (but significantly) prevented these effects”. For the same molecule, the “effect on the Visipaque-induced increase in mean arterial blood pressure” value ([9]; substance 1 5 mg/kg iv bolus 30 min before Visipaque 1.5 mL i.a., not shown) was “partially prevented” and the “hemodynamic parameters (arterial blood pressure, RBF) before the Visipaque challenge” value ([9]; substance 1 5 mg/kg iv bolus, not shown) was “did not modify”.

With CCCn1c(=O)c2[nH]c(C34CC5CC(CC3C5)C4)nc2n(CCC)c1=O [KW3902, reference compound] the PGP-factor [2] was 1.4 and the “Permeability (%)” value [3] was 31.1%.
